According to patent publication US20080293812A1, “Use of pamoic acid or one of its derivatives, or one of its analogues, for the preparation of a medicament for the treatment of diseases characterised by deposits of amyloid aggregates” (Sigma-Tau Industrie Farmaceutiche Riunite S. P.A.,, priority 2000, published 2008):

Experiments:
βA1-42 peptide [1] = target: T1, βA1-42 peptide (Homo sapiens, UniProt P05067); experiment: βA1-42 polymerization, Thioflavina T binding assay in 96 well plates; type: biochemical; conditions: concentrations between 0.8 and 100 μM, overnight at 37° C.; read-out: DE50 (the source's name)
T1 construct: βA1-42 peptide (1 mg/ml) was dissolved in H2O/CH3CN (1:1)
T1 sequence (P05067 672-713): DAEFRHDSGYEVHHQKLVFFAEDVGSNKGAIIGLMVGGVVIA
Experimental: The ST1641, ST1722, ST1859, ST1745, ST1800, ST1913 capability to counteract βA1-42 polymerization was evaluated using the Thioflavina “T” binding assay with the following procedure (M. A. Findeis, S. M. Molineaux; Methods in Enzymology 309, 487-488 (1999)): βA1-42 peptide (1 mg/ml) was dissolved in H2O/CH3CN (1:1), lyophilized, solubilized in DMSO+PBS and incubated at 37° C. for 8 days. The peptide was then sonicated and dissolved in PBS (1:5). 96 well plates were prepared with a solution of βA1-42 (40 μl/well) and ST testing compounds (50 μl/well, at concentrations between 0.8 and 100 μM). 50 μl of not aggregated βA1-42 was added after 15 minutes to each well and the plates were incubated overnight at 37° C. with agitation. 200 μl of a reaction mixture containing Thioflavina “T” (10 μM) and Na2HPO4×2H2O (50 μM) solution (pH 6.5) was then added to each well. The fluorescence was measured at 450 nm of excitation and 482 nm of emission with a 96 well fluorimetric plate reader within 60 seconds. At this experimental conditions fluorimetric measures were related to the amount of βA1-42 polymerized peptide.

[2] = Capability to cross in vivo the blood brain barrier, 14C-labelled compound; parameters: species or system rats; conditions: i.v.
Experimental: ST1859 inhibited “in vitro” the beta amyloid aggregation and to test its permeability through the intact blood-brain barrier, ST1859, labelled with ^14C(S. A. 50 μCi/mM), was injected i.v. into normal rats at the dose of 18 μCi/rat. The brain and blood were up-taken 30′ after the injection, the blood was then centrifuged (3000 RPM×15 min) and serum obtained was diluted 1:20 with water while brain tissue was homogenized 1:20 w/v in water. To each sample was then added 4 ml of scintillation liquid for aqueous samples The amount of radioactivity was counted with an automatic β-counter (Packard 4600). Data reported in DPM (table 1) were normalized vs. weight or volume of each sample.

β-amyloid25-35 peptide = target: T2, β-amyloid25-35 peptide (Homo sapiens, UniProt P05067); experiment: Antiaggregant effect on β-amyloid25-35 peptide (centrifugation, settled solid); type: biochemical; conditions: sodium pamoate 1 mM, βA25-35 1 mM, phosphate buffer 100 mM pH 5, 24 hours ambient temperature
T2 construct: aqueous solution of βA25-35 2 mM (cat. Bachem n° H-1192.0001); purchased Bachem H-1192.0001
Experimental: To 250 μl of a solution consisting of sodium pamoate 2 mM and phosphate buffer 200 mM pH 5 were added 250 μl of an aqueous solution of βA25-35 2 mM (cat. Bachem n° H-1192.0001). 500 μl of a solution of sodium pamoate 1 mM, βA25-35 1 mM and phosphate buffer 100 mM pH 5 were thus obtained. The same process was carried out for the control sample where sodium pamoate was not present. After 24 hours at ambient temperature, the sample and control were centrifuged at 12000 rpm for 20 minutes, separating the settled solids from the supernatants. To the settled solids were added 250 μL of water. After 3 hours at ambient temperature the samples were centrifuged again at a 12000 rpm for 20 minutes.

[3] = test system: primary cortical neuronal cultures; experiment: Inhibition of neurotoxicity induced by β-amyloid25-35 in primary neuronal cultures; type: cell-based, rat
Experimental: To verify the potential neuroprotective activity of sodium pamoate, primary cortical neuronal cultures obtained by microdissection of rat foetal brain at day 16-18 of gestation were used. The cerebral tissue was cultivated in the presence of foetal calf serum and the glial proliferation was inhibited by adding to the incubation medium the antimitotic agent cytosine arabinoside on days 3 and 5 (Andreoni et al. 1997 Exp. Neurology 148:281-287). The cell cultures were exposed to βA25-35 peptide for 5-7 days in the presence or absence of sodium pamoate. The neuroprotective action was evaluated in conditions of neurotoxicity induced by kainic acid to verify the specificity of action of sodium pamoate and its effective antiaggregant activity against the neurotoxic agent. The ability of sodium pamoate to protect the cells against degeneration was also evaluated in neuronal cells cultured in the absence of foetal calf serum in the culture medium. In this case, 24 hours after seeding, the medium was replaced with one without serum containing glutamine, insulin, transferrin, putrescin, progesterone, sodium selenite and Hepes.
Primary cultures of neurons of the […] were taken from the rat foetal brain on days 16-18 of gestation and cultured in foetal calf serum. On incubation days 3 and 5, glial proliferation was inhibited using cytosine arabinoside as an antimitotic agent.
The cultures were exposed to βA25-35 peptide at concentrations of 25 and 50 μM from the day following seeding for 5 to 7 days.
βA25-35 peptide was added to the cultures together with sodium pamoate which had equimolar concentrations or concentrations lower than those of the peptide itself.
The protection against neurotoxicity was evaluated using the colorimetric method and densitometric analysis with an image analyser.

βA1-42 peptide [4] = target: T1, βA1-42 peptide; experiment: Resistance of β-amyloid1-42 peptide to trypsin digestion, HPLC; type: biochemical
Experimental: βA1-42 peptide was dissolved with 15 μl of NaOH 0.1 M. The solution was brought to pH 7.4 with 15 μl of TRIS buffer 100 mM to which were added 30 μl of buffer alone or 30 μl of buffer solution containing sodium pamoate. The final concentration of βA1-42 peptide was 0.22 mM, and that of sodium pamoate ranged from 0.055 to 1.76 mM, thus with a βA1-42 peptide:sodium pamoate ratio ranging from 4:1 to 1:8. The samples thus prepared were incubated at 37° C. for 5 days; in these conditions βA1-42 peptide formed aggregates in the form of fibrils modifying its structure from random-coil to β-sheet (Zagorski M. G. et al. 1999 “Methodological and Chemical Factors Affecting Amyloid β Peptide Amyloidogenicity” Methods in Enzymology 309:189-204). After 5 days' incubation, 24 μg of trypsin (Merck) were added to each sample, stirred and centrifuged for 1 minute at 13000 rpm; the samples were then left to incubate at 37° C. for 1 hour. When this period had elapsed, the mixture was centrifuged for 5 minutes at 13000 rpm, eliminating 50 μl of supernatant, and the precipitate was dissolved with 40 μl of HCOOH and 10 μl of H2O containing 0.1% of trifluoroacetic acid (TFA). At this point the sample was ready for quantitative HPLC analysis. The HPLC profile of the sample incubated with sodium pamoate was compared with that obtained with peptide alone, thereby quantifying the βA1-42 peptide.

[5] = target: T3, previously aggregated βA1-42 peptide (Homo sapiens, UniProt P05067); experiment: Dissolution of aggregates of preformed β-amyloid1-42 in fibril form, thioflavin T binding; type: biochemical; conditions: peptide:pamoate ratio 1:8
T3 construct: βA1-42 peptide (cat. Bachem n° H-1368.0500) at a concentration of 0.22 mM; purchased Bachem H-1368.0500
T3 sequence (P05067 672-713): as above
Experimental: This experiment was conducted in order to assess the antiaggregant capacity of sodium pamoate on previously aggregated βA1-42 peptide, according to the following procedure. βA1-42 peptide was left to aggregate for 48 hours at 37° C. in the conditions described in Example 6. Sodium pamoate was added (peptide:pamoate ratio 1:8).

βA1-42 peptide [6] = target: T1, βA1-42 peptide; experiment: Antiaggregant effect on β-amyloid1-42 peptide, thioflavin T binding, 5 days incubation; type: biochemical
Experimental: The antiaggregant effects of sodium pamoate on βA1-42 peptide were evaluated by measuring thioflavin T binding according to the following procedure. βA1-42 peptide (cat. Bachem n° H-1368.0500) at a concentration of 0.22 mM was incubated at 37° C. in Tris buffer 100 mM pH 7.4, alone or in the presence of sodium pamoate, for 5 days. The molar ratios of the peptide to sodium pamoate were generally 1:8, 1:4 and 1:2. The solution was centrifuged at 13000 rpm for 5 minutes and the supernatant was eliminated. The precipitate was washed with 500 μl of H2O and centrifuged at 13000 rpm for 5 minutes. In the precipitate, the aggregate in fibril form was detected with 600 μl of thioflavin T (ThT) 2 μM dissolved in glycine-NaOH buffer 50 mM, pH 9.4. After 5 minutes' incubation 500 μl of samples were transferred to a quartz cuvette and the fluorimetric signal was determined at 420 nm excitation and 480 nm emission in a spectrophotofluorimeter. In these conditions the fluorimetric signal is proportional to the amount of amyloid aggregate (Le Vine, Methods in Enzymology, vol. 309 pp 274-284).

cerebellar granules = experiment: Apoptosis of cerebellar granules induced by K+ deprivation; type: cell-based, rat; conditions: concentration of 10 μM
Experimental: Granules isolated from cerebellum of 8-day-old rats are differentiated biochemically and morphologically in approximately one week, becoming morphologically mature and with a glutamatergic interneuron phenotype (Gallo et al. 1982 PNAS 79:7919-7923). On depriving the culture medium of serum and reducing the extracellular concentration of potassium ions (25 mM) to the extent of bringing it down to a non-depolarising condition (5 mM), cell death by apoptosis is obtained in approximately 24 hours.
This experimental model made it possible to obtain a “self-fuelling” βA production system where neuronal apoptosis of the cerebellar granules brought about changes in the processing of the amyloid precursor APP, of such a nature as to favour the course of amyloidogenic metabolism. The increase in βA levels, in turn, favours programmed cell death. In this experimental setting, the potential efficacy of the study substances was measured in terms of cell survival at given times (24, 48 and 72 hours) after the reduction of KCl in the medium.
In primary cultures of cerebellar granules of 8-day-old rats, maintained in a culture medium containing KCl 25 mM, the cells were labelled with ^35S-methionine after 6 days in culture. […]
The protection against toxicity was assessed in terms of cell viability at 24, 48 and 72 hours.

[7] = 18 μCi/rat, 30′ after the injection, mean

CC(=O)O[C@H](CC(=O)Oc1c(C(=O)O)cc2ccccc2c1Cc1c(O)c(C(=O)O)cc2ccccc12)C[N+](C)(C)C [ST1722, (2R)-2-(acetyloxy)-4-({3-carboxy-1-[(3-carboxy-2-hydroxy-1-naphthyl)methyl]-2-naphthyl}oxy)-N,N,N-trimethyl-4-oxo-1-butanaminium chloride]
EC50 (βA1-42 peptide [1]): 90.3 µM

CC(=O)O[C@H](CC(=O)Oc1ccc2ccccc2c1Cc1c(O)ccc2ccccc12)C[N+](C)(C)C [ST1745, (2R)-2-(acetyloxy)-4-({1-[(2-hydroxy-1-naphthyl)methyl]-2-naphthyl}oxy)-N,N,N-trimethyl-4-oxo-1-butanaminium chloride]
EC50 (βA1-42 peptide [1]): 8 µM

NCC(=O)Oc1ccc2ccccc2c1Cc1c(O)ccc2ccccc12 [ST1913, 2-({1-[(2-hydroxy-1-naphthyl)methyl]-2-naphthyl}oxy)-2-oxoethanaminium chloride]
EC50 (βA1-42 peptide [1]): 7.8 µM

Oc1ccc2ccccc2c1Cc1c(O)ccc2ccccc12 [ST1859, 1,1′-methylene-di(2-naphthol)]
Brain radioactivity [2, 7]: 35.643 DPM/g | Serum radioactivity [2, 7]: 29.776 DPM/ml | Serum/Brain [2, 7]: 0.833 | ability to cross the blood brain barrier ([2]; normal rats): able to cross the blood brain barrier | EC50 (βA1-42 peptide [1]): 5.4 µM

O=C(O)c1cc2ccccc2c(Cc2c([O-])c(C(=O)O)cc3ccccc23)c1[O-].[Na+].[Na+] [ST1641, sodium pamoate]
inhibition of aggregation of βA25-35 peptide in fibrils (β-amyloid25-35 peptide): complete inhibition | protection against the toxicity induced by βA25-35 [3]: complete protection | percentage survival ([3]; Sodium pamoate 25 μM + βA25-35 50 μM): 100 % S | percentage survival ([3]; Sodium pamoate 25 μM alone): 88 % S | increase of trypsin hydrolysis of βA1-42 (βA1-42 peptide [4]; highest dose, peptide:pamoate ratio 1:8): more than 50% | increase of trypsin hydrolysis of βA1-42 (βA1-42 peptide [4]; lowest dose, peptide:pamoate ratio 1:4): more than 40% | activity in reducing thioflavin T binding ([5]; preformed aggregates): extremely active | reduction in fluorescence as compared to controls ([5]; βA1-42 aggregated 48 hours at 37° C.): 70% | EC50 (βA1-42 peptide [1]): 38.2 µM | efficacy in reducing thioflavin T binding as a function of incubation time (βA1-42 peptide [6]; from 1 to 5 days' incubation): progressive increase in efficacy | reduction in the formation of βA1-42 aggregates in the form of fibrils as compared to controls (βA1-42 peptide [6]; βA1-42 0.22 mM, 37° C., 5 days, peptide:pamoate 1:8, 1:4, 1:2, dose-dependent): ≤ 70% | protection against the damage induced by amyloid forming during the apoptotic process (cerebellar granules): 89%

CCN(CC)CCOC(=O)c1cc2ccccc2c(Cc2c(O)c(C(=O)OCCN(CC)CC)cc3ccccc23)c1O [ST1800, 2-({4-[(3-{[2-(diethylammonio)ethoxy]carbonyl}-2-hydroxy-1-naphthyl)methyl]-3-hydroxy-2-naphthoyl}oxy)-N,N-diethylethanaminium dichloride]
EC50 (βA1-42 peptide [1]): > 50 µM

βA25-35: β-amyloid25-35 peptide (cat. Bachem n° H-1192.0001), used as neurotoxic agent (GSNKGAIIGLM; Amyloid-beta protein 42; UniProt P05067 696-706, looked up, fragment) [reference compound]
percentage survival ([3]; βA25-35 50 μM alone): 16 % S
